The results in this text go back to patent EP4818171A1 (Apeiron Therapeutics (Hong Kong) Ltd., priority 2024, dated 2025).

For one series, the system named is HCT-116 wild-type cells. In words: Inhibitory activity on proliferation of HCT-116 wild-type cells (Cell-Titer Glo). The format is cell-based. As to conditions: 8 d incubation.
In series [1] the test system is HCT-116 MTAP(-/-)deleted cells. As to conditions: 192 h.
Procedure: (§1) Only cells in the logarithmic growth phase could be used for the test. […] The cell concentration was adjusted, rendering that cells were inoculated into a 384-well plate at 40 µL per well and incubated overnight at 37°C and 5% carbon dioxide. 40 nL of the compound was added to each well to reach a final concentration of 0-10,000 nM (starting concentration 10,000 nM, 3-fold dilution, 10 points), and the cell plate with 0.1% DMSO content was incubated at 37°C and 5% carbon dioxide for 8 d. 40 µL of Cell-Titer Glo reagent was added to test cell viability.
Series [2] concerns LU99 MTAP(-/-)deleted cells. The note with it: 144 h.
Procedure: (§2) Materials and cells: LU99 MTAP deleted cell line was purchased from Kyinno Biotechnology (China); cell culture medium and fetal bovine serum were purchased from Thermo Fisher Scientific (USA); 384-well plates were purchased from PerkinElmer (USA); Cell-Titer Glo kits were purchased from Promega (USA). Cell culture: LU99 MTAP(-/-)deleted cells were cultured with medium containing 10% fetal bovine serum at 37°C in 5% carbon dioxide. Only cells in the logarithmic growth phase could be used for the test.
(§3) Test of inhibitory activity on cell proliferation: The Cell-Titer Glo kit was used to test the proliferation inhibitory activity of the compounds on LU99 MTAP(-/-)deleted cells. The cell concentration was adjusted, rendering that cells were inoculated into a 384-well plate at 40 µL per well and incubated overnight at 37°C and 5% carbon dioxide. […] 40 µL of Cell-Titer Glo reagent was added to test cell viability.
Series [3] concerns LU99 MTAP overexpressing cells. The series is described as follows: Inhibitory activity on proliferation of LU99 MTAP overexpressing cells (Cell-Titer Glo). It is filed as cell-based. As to conditions: 6 d incubation.
Procedure: Materials and cells: LU99 MTAP overexpressing cell line was purchased from Kyinno Biotechnology (China); cell culture medium and fetal bovine serum were purchased from Thermo Fisher Scientific (USA); 384-well plates were purchased from PerkinElmer (USA); Cell-Titer Glo kits were purchased from Promega (USA).
Cell culture: LU99 MTAP overexpressing cells were cultured with medium containing 10% fetal bovine serum at 37°C in 5% carbon dioxide. Only cells in the logarithmic growth phase could be used for the test.
Test of inhibitory activity on cell proliferation: The Cell-Titer Glo kit was used to test the proliferation inhibitory activity of the compounds on LU99 MTAP overexpressing cells. The cell concentration was adjusted, rendering that cells were inoculated into a 384-well plate at 40 µL per well and incubated overnight at 37°C and 5% carbon dioxide. 40 nL of the compound was added to each well to reach a final concentration of 0-10,000 nM (starting concentration 10,000 nM, 2.5-fold dilution, 10 points), and the cell plate with 0.2% DMSO content was incubated at 37°C and 5% carbon dioxide for 6 d. 40 µL of Cell-Titer Glo reagent was added to test cell viability.
Series [4] deals with HCT-116 MTAP(-/-)deleted cells. In words: Inhibitory activity on proliferation of HCT-116 MTAP(-/-)deleted cells (Cell-Titer Glo). As to conditions: Homo sapiens, HCT-116, 192 h, read-out: IC50 (nM) HCT-116 MTAP(-/-)deleted.
Procedure: as §1
For series [5], the system named is LU99 MTAP(-/-)deleted cells. The series is described as follows: Inhibitory activity on proliferation of LU99 MTAP(-/-)deleted cells (Cell-Titer Glo). The note with it: Homo sapiens, Lu-99, 144 h.
Procedure: as §2, §3
The nature of series [6]: Pharmacokinetic test in mice. The format is in vivo. As to conditions: male, mouse, plasma, ICR mice; for bioavailability: read-out: Bioavailability (F). Here is the method:
The test compounds are compounds according to examples of the present disclosure
ICR male mice N=3/group; original source: Zhejiang Vital River Laboratory Animal Technology Co., Ltd.
Single oral administration (PO) to ICR mice: The compound was weighed and dissolved with DMSO, a certain volume of polyethylene glycol 400 and water for injection (WFI) were added, and then a small volume of 1 mol/L hydrochloric acid solution was added to adjust to a clear solution. […]
Single intravenous (IV) administration to ICR mice: The compound was weighed and dissolved with DMSO, a certain volume of polyethylene glycol 400 and water for injection (WFI) were added, and then a small volume of 1 mol/L hydrochloric acid solution was added to adjust to a clear solution. The administration via tail vein injection was conducted for a total of 3 mice after fasting overnight at a dose of 3 mg/kg.
Blood was collected from the dorsalis pedis vein at approximately 30 µL/time point, anticoagulated with dipotassium ethylenediaminetetraacetate and kept on ice until plasma was separated by centrifugation (4000 g/min; 5 min; 4°C) within 1 h. The blood sampling time points were 0.0833 (intravenous injection), 0.25, 0.5, 1, 2, 4, 6, 8, and 24 h. The samples were stored in a refrigerator at -20°C.
A total of 30 µL of plasma sample (10 µL sample + 20 µL blank plasma sample) was added with 200 µL ice-cold ACN containing internal standard, vortexed for 30 s, and centrifuged at 4000 g/min for 20 min. A total of 100 µL of the supernatant was transferred to a 96-well plate, 200 µL of ultrapure water was added, vortexed for 30 s, and 5 µL or 10 µL was injected into LC-MS/MS for analysis. Table 2: Pharmacokinetic Data

Setting [7] is: read-out: IC50 (nM) Lu99 MTAP(-/-)Deleted, LU99 MTAP(-/-)deleted cells, 6 d incubation, Cell-Titer Glo.

SMILES strings stand for the structures. Like-named read-outs stand apart in the source and are kept apart here. A value given as a limit tells only on which side of the number the result lay.

Procedure for HCT-116 wild-type cells: Cell culture: HCT-116 wild-type cells were cultured with a RPMI-1640 medium containing 10% fetal bovine serum+1% penicillin-streptomycin at 37°C in 5% carbon dioxide. Only cells in the logarithmic growth phase could be used for the test.
Test of cell proliferation activity: Cell-Titer Glo kit was used to test the proliferation inhibitory activity of the compound on HCT-116 wild-type cells. The cell concentration was adjusted, rendering that cells were inoculated into a 384-well plate at 40 µL per well and incubated overnight at 37°C and 5% carbon dioxide. 40 nL of the compound was added to each well to reach a final concentration of 0-10,000 nM (starting concentration 10,000 nM, 2-fold dilution, 10 points), and the cell plate with 0.1% DMSO content was incubated at 37°C and 5% carbon dioxide for 8 d. 40 µL of Cell-Titer Glo reagent was added to test cell viability.

On to `CN(C(=O)c1ccc2nc(N)c3cncn3c2c1)C1COC2(CCC2)c2cc(N3CCOCC3)ncc21` (stereo not shown) [Example 6, 4-Amino-N-methyl-N-(7'-morpholinyl-3',4'-dihydrospiro[cyclobutane-1,1'-pyrano[4,3-c]pyridine]-4'-yl)imidazo[1,5-a]quinoxaline-8-carboxamide], for which the IC50 with HCT-116 wild-type cells came out at 10000 nM; in series [1], 110 nM; in series [2], 88.5 nM; in series [3], 3880 nM.

Take `CN(C(=O)c1ccc2nc(N)c3cncn3c2c1)[C@@H]1COC2(CCC2)c2cc(N3CC[Si](C)(C)CC3)ncc21` [Example 34]: the IC50 was 5250 nM with HCT-116 wild-type cells (Homo sapiens, 192 h); 1430 nM in series [3] (Homo sapiens, Lu-99, 144 h); 40 nM in series [4]; 41.5 nM in series [5] (read-out: IC50 (nM) Lu99 MTAP(-/-)Deleted).

`CN(C(=O)c1ccc2nc(N)c3cncn3c2c1)[C@@H]1COC2(CCC2)c2cc(-n3cc(C(F)(F)F)cn3)ncc21` [Example 45, (S)-4-amino-N-methyl-N-(7'-(4-(trifluoromethyl)-1H-pyrazol-1-yl)-3',4'-dihydrospiro[cyclobutane-1,1'-pyrano[4,3-c]pyridine]-4'-yl)imidazo[1,5-a]quinoxaline-8-carboxamide]: the IC50 stood at 7050 nM in the series with HCT-116 wild-type cells (Homo sapiens, HCT-116, 192 h); 4710 nM in series [3] (Homo sapiens, Lu-99, 144 h); 34.1 nM in series [4]; 30.2 nM in series [5] (setting [7]).

For the compound `CN(C(=O)c1ccc2nc(N)c3cncn3c2c1)[C@@H]1COC2(CCC2)c2cc(N3C4COCC3C4)ncc21` [Example 48, N-((4'S)-7'-(3-oxa-6-azabicyclo[3.1.1]heptane-6-yl)-3',4'-dihydrospiro[cyclobutane-1,1'-pyrano[4,3-c]pyridine]-4'-yl)-4-amino-N-methylimidazo[1,5-a]quinoxaline-8-carboxamide], the IC50 with HCT-116 wild-type cells (Homo sapiens, HCT-116, 192 h) was over 20000 nM; in series [3] (Homo sapiens, Lu-99, 144 h) it was 10600 nM; in series [4] it was 144 nM; in series [5] (setting [7]), 150 nM.

Consider `Cc1ncc2c(N)nc3cc(F)c(C(=O)N(C)C4COC5(CCCOC5)c5cc(C(F)(F)F)ccc54)cc3n12` (stereo not shown) [Example 51, 4-Amino-7-fluoro-N,1-dimethyl-N-(7-(trifluoromethyl)-5',6'-dihydro-2'H,4'H-pyran[isochroman-1,3'-pyran]-4-yl)imidazo[1,5-a]quinoxaline-8-carboxamide], for which the IC50 was 1830 nM in the series on HCT-116 wild-type cells (Homo sapiens, HCT-116, 192 h); 1320 nM in series [3] (Homo sapiens, Lu-99, 144 h); 8.02 nM in series [4]; 14 nM in series [5] (setting [7]).

As for `Cc1ncn2c1c(N)nc1cc(F)c(C(=O)N(C)C3COC4(CCCOC4)c4cc(C(F)(F)F)ccc43)cc12` (stereo not shown) [Example 52, 4-Amino-7-fluoro-N,3-dimethyl-N-(7-(trifluoromethyl)-5',6'-dihydro-2'H,4'H-pyran[isochroman-1,3'-pyran]-4-yl)imidazo[1,5-a]quinoxaline-8-carboxamide], the IC50 was determined as 602 nM with HCT-116 wild-type cells (Homo sapiens, HCT-116, 192 h); 539 nM in series [3] (Homo sapiens, Lu-99, 144 h); 8.06 nM in series [4]; 14.9 nM in series [5] (setting [7]).

As to `CN(C(=O)c1ccc2nc(N)c3cncn3c2c1)[C@H]1COC2(CC2)c2cc(C(F)(F)F)ccc21` [Example 53, (R)-4-amino-N-methyl-N-(7'-(trifluoromethyl)spiro[cyclopropane-1,1'-isochroman]-4'-yl)imidazo[1,5-a]quinoxaline-8-carboxamide], the IC50 with HCT-116 wild-type cells (Homo sapiens, HCT-116, 192 h) was 7590 nM; in series [3] (Homo sapiens, Lu-99, 144 h), 1750 nM; in series [4], 419 nM; in series [5] (setting [7]), 682 nM.

In general, bioavailability refers to dose-corrected exposure relative to a reference, in per cent. One may read the AUC(0-t) as exposure summed from dosing to a finite time, without extrapolation to infinity. A higher AUC(0-t) goes with high exposure. Usually half-life stands for the time in which the quantity being followed falls by half. Low readings indicate fast loss, high ones slow loss. As to `CN(C(=O)c1ccc2nc(N)c3cncn3c2c1)[C@@H]1COC2(CC2)c2cc(C(F)(F)F)ccc21` [Example 54, (S)-4-amino-N-methyl-N-(7'-(trifluoromethyl)spiro[cyclopropane-1,1'-isochroman]-4'-yl)imidazo[1,5-a]quinoxaline-8-carboxamide], the IC50 in the series with HCT-116 wild-type cells (Homo sapiens, HCT-116, 192 h) came out at 1040 nM; in series [3] (Homo sapiens, Lu-99, 144 h), 1100 nM; in series [4], 5.8 nM; in series [5] (setting [7]), 8.11 nM. For the same compound, the results for the bioavailability in series [6] (PO(30mg/kg)) and in series [6] (PO(100mg/kg)) were 86.5% and 48.2%, respectively. In addition, the AUC(0-t) was 25.4 µg·h/mL in series [6] (IV(3mg/kg)), 220 µg·h/mL in series [6] (PO(30mg/kg)) and 408 µg·h/mL in series [6] (PO(100mg/kg)). The half-life was 2.37 h in series [6] (IV(3mg/kg)), 1.47 h in series [6] (PO(30mg/kg)) and 2.06 h in series [6] (PO(100mg/kg)).

Regarding `CN(C(=O)c1ccc2nc(N)c3cncn3c2c1)[C@@H]1COC(C)(C)c2cc(N3CCOCC3)ccc21` [Example 98, (S)-4-amine-N-(1,1-dimethyl-7-morpholinoisochroman-4-yl)-N-methylimidazo[1,5-a]quinoxaline-8-carboxamide], the IC50 in the series on HCT-116 wild-type cells (Homo sapiens, HCT-116, 192 h) was over 10000 nM; in series [3] (Homo sapiens, Lu-99, 144 h), 8100 nM; in series [4], 47.9 nM; in series [5] (setting [7]) it was 57.5 nM.

Consider `CN(C(=O)c1ccc2nc(N)c3cncn3c2c1)[C@@H]1COC2(CCOCC2)c2cc(C(F)(F)F)ccc21` [Example 100, (S)-4-amino-N-methyl-N-(7'-(trifluoromethyl)-2',3',5',6'-tetrahydrospiro[isochroman-1,4'-pyran]-4-yl)imidazo[1,5-a]quinoxaline-8-carboxamide], for which the IC50 in the series with HCT-116 wild-type cells (Homo sapiens, HCT-116, 192 h) was found to be 902 nM; in series [3] (Homo sapiens, Lu-99, 144 h), 938 nM; in series [4], 5.2 nM; in series [5] (setting [7]), 8.5 nM.

With `CN(C(=O)c1ccc2nc(N)c3cncn3c2c1)[C@H]1COC2(CCOCC2)c2cc(C(F)(F)F)ccc21` [Example 101, (R)-4-amino-N-methyl-N-(7'-(trifluoromethyl)-2',3',5',6'-tetrahydrospiro[isochroman-1,4'-pyran]-4-yl)imidazo[1,5-a]quinoxaline-8-carboxamide], the IC50 is 9490 nM in the series with HCT-116 wild-type cells (Homo sapiens, HCT-116, 192 h); 5640 nM in series [3] (Homo sapiens, Lu-99, 144 h); 403 nM in series [4]; over 1000 nM in series [5] (setting [7]).
